Test results published in ChEMBL document CHEMBL5465560, “Selectivity Literature for EUbOPEN Chemogenomic Library” (2024).

Key:
[1] = target: Tyrosine-protein kinase JAK1 (Homo sapiens, UniProt P23458); experiment: Selectivity interaction (KinomeScan (DiscoverX)) EUB0000229b JAK1; conditions: at 10 µM
[2] = target: T1, Serine/threonine-protein kinase DCLK1 (Homo sapiens) (UniProt O15075); experiment: Selectivity interaction (Kinase panel (DSF assay)) EUB0001559a DCLK1
T1 sequence (whole entry): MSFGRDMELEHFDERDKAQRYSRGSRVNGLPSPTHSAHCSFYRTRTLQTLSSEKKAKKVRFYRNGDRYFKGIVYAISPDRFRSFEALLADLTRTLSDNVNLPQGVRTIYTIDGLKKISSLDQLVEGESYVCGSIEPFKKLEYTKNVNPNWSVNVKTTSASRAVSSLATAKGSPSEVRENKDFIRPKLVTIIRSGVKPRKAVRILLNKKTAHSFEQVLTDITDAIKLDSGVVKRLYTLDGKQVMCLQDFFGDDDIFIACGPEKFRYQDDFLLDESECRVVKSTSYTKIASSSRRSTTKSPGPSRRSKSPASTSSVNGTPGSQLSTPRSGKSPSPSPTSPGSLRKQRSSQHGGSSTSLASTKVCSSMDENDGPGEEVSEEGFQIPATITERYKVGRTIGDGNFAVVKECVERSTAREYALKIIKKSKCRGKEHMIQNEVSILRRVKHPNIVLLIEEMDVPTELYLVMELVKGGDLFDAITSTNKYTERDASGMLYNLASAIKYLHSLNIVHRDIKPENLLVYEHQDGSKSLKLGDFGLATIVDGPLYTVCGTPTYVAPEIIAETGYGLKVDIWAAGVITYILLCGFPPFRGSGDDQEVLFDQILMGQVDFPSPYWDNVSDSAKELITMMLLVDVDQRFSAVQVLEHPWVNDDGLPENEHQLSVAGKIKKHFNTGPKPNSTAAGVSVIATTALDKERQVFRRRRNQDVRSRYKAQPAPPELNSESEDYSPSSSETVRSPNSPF

[3] = target: Ribosomal protein S6 kinase alpha-1 (Homo sapiens, UniProt Q15418); experiment: Selectivity interaction (KinomeScan (DiscoverX)) EUB0001079a RPS6KA1; conditions: at 1 µM
Sequence of Ribosomal protein S6 kinase alpha-1 (Q15418 whole entry): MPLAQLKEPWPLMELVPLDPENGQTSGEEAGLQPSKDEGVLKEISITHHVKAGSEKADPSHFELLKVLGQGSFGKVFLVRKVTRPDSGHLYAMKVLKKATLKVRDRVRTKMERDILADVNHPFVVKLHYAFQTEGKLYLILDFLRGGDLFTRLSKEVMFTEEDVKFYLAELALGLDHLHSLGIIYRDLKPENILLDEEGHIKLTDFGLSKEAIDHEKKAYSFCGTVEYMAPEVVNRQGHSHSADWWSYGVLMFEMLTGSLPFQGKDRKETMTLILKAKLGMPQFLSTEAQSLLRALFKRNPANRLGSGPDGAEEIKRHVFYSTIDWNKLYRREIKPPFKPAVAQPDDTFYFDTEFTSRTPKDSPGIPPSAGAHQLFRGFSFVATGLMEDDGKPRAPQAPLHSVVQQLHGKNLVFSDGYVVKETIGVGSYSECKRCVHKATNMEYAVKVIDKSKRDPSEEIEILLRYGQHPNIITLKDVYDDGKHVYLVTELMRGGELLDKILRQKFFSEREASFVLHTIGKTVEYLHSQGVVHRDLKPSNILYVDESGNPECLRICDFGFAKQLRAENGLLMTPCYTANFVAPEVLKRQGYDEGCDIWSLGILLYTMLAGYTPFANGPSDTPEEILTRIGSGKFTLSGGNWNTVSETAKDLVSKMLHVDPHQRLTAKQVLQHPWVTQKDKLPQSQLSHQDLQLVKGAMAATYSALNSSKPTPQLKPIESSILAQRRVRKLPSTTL

[4] = target: Serine/threonine-protein kinase 32B (Homo sapiens) (UniProt Q9NY57); experiment: Selectivity interaction (KinomeScan (DiscoverX)) EUB0001079a STK32B; conditions: at 1 µM
Sequence of Serine/threonine-protein kinase 32B (Homo sapiens) (Q9NY57 whole entry): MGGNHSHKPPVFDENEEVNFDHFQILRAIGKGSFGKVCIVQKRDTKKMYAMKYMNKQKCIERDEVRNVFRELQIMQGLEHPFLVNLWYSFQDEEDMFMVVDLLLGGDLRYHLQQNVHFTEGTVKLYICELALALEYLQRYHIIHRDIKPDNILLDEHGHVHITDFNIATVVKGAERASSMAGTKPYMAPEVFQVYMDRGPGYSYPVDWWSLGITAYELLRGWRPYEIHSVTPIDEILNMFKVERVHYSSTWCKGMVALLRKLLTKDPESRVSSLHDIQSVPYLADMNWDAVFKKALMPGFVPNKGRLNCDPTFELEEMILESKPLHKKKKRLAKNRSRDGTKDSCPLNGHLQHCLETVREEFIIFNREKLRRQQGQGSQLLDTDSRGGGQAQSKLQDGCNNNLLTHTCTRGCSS

[5] = target: Fibroblast growth factor receptor 2 (Homo sapiens) (UniProt P21802); experiment: Selectivity interaction (KinaseProfiler screening (Millipore)) EUB0000601a FGFR2; conditions: at 3 µM
Sequence of Fibroblast growth factor receptor 2 (Homo sapiens) (P21802 22-821 limits assumed): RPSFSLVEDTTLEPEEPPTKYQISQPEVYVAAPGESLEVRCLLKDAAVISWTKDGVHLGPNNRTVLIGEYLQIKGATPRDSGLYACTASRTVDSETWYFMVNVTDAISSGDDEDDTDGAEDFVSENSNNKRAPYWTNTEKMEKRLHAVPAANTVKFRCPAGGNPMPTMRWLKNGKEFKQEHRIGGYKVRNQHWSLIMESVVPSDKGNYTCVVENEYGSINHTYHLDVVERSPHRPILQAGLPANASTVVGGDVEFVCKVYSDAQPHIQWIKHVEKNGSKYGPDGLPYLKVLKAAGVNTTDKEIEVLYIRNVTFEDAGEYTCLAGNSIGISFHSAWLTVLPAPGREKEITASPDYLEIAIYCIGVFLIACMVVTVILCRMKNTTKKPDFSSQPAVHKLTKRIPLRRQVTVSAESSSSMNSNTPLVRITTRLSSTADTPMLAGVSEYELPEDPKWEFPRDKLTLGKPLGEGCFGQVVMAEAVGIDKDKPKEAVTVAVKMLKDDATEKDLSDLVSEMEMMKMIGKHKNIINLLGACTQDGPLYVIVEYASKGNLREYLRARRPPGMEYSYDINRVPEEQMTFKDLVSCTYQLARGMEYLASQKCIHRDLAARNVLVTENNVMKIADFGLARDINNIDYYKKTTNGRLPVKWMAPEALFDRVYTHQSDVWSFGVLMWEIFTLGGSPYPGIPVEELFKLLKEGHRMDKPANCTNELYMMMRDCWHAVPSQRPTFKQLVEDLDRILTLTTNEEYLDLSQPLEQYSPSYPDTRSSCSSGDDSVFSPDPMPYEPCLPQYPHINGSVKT

[6] = target: Dual specificity testis-specific protein kinase 1 (Homo sapiens) (UniProt Q15569); conditions: at 10 µM
Sequence of Dual specificity testis-specific protein kinase 1 (Homo sapiens) (Q15569 whole entry, looked up): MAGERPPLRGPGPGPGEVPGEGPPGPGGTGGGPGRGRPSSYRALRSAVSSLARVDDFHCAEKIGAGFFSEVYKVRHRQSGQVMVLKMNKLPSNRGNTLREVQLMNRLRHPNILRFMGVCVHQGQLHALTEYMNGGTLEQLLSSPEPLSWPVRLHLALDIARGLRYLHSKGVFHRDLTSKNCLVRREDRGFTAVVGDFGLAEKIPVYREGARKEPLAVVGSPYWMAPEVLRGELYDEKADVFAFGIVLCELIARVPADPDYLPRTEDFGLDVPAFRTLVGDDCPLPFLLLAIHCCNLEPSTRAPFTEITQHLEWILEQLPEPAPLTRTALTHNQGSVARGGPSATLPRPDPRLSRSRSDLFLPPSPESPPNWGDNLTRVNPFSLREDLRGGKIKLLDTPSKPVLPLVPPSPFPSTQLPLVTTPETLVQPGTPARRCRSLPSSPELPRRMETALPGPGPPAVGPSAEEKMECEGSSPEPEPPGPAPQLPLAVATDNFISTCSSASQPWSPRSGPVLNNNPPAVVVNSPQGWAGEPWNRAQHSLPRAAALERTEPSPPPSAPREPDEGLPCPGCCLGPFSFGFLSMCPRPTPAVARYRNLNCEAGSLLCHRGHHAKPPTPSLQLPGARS

[7] = target: Dual specificity mitogen-activated protein kinase kinase 2 (Homo sapiens) (UniProt P36507); conditions: at 10 µM
Sequence of Dual specificity mitogen-activated protein kinase kinase 2 (Homo sapiens) (P36507 whole entry): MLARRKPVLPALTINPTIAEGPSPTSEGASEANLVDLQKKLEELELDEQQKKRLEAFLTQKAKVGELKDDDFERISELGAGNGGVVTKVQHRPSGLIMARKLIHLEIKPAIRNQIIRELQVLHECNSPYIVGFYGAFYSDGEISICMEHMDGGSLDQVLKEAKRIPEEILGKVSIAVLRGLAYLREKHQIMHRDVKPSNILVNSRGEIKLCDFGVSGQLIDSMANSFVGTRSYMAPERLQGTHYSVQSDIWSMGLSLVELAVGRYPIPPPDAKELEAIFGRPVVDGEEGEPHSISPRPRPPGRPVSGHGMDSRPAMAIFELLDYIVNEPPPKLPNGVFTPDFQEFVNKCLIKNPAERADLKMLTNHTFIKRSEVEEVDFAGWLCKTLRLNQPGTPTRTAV

[8] = target: Serine/threonine-protein kinase MARK1 (Homo sapiens) (UniProt Q9P0L2); experiment: Selectivity interaction (Kinase panel (Z-LYTE Assay)) EUB0001632a MARK1; conditions: at 10 µM
Sequence of Serine/threonine-protein kinase MARK1 (Homo sapiens) (Q9P0L2 whole entry, looked up): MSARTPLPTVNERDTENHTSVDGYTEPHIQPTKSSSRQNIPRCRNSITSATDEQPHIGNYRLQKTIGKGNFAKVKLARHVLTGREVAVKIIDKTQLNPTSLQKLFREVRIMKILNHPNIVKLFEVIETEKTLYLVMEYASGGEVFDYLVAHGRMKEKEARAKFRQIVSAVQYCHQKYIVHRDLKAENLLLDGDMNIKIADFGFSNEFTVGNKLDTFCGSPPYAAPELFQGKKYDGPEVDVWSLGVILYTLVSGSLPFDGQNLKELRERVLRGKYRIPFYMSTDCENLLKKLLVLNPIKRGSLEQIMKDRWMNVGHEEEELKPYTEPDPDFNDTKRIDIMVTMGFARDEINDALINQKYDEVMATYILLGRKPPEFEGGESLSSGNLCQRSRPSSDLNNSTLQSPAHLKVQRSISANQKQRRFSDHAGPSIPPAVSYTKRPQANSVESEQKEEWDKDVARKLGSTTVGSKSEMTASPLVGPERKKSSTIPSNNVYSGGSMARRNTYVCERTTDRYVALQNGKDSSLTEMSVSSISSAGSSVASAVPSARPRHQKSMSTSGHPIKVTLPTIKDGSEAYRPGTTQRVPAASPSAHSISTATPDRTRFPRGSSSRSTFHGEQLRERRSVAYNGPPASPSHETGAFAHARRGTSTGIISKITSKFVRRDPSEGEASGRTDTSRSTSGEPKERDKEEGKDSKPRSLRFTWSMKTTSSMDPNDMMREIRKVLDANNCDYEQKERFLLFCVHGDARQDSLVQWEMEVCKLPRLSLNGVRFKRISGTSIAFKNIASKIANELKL

[9] = target: T2, Serine/threonine-protein kinase 17B (Homo sapiens) (UniProt O94768); experiment: Selectivity interaction (KinomeScan (DiscoverX)) EUB0000618a STK17B; conditions: at 10 µM
T2 sequence (whole entry): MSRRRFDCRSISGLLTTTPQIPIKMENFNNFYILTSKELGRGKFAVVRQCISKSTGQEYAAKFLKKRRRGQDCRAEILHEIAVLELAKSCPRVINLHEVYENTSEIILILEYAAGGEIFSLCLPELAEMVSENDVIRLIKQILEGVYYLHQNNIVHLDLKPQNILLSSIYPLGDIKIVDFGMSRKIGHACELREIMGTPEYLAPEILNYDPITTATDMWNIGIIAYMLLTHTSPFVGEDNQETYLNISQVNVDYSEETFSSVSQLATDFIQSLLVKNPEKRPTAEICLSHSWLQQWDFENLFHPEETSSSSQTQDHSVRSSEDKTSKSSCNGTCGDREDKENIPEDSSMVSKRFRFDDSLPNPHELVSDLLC

[10] = target: T3, Tyrosine-protein kinase Tec (Homo sapiens) (UniProt P42680); experiment: Selectivity interaction (KinomeScan (DiscoverX)) EUB0001619a TEC; conditions: at 1 µM
T3 sequence (whole entry): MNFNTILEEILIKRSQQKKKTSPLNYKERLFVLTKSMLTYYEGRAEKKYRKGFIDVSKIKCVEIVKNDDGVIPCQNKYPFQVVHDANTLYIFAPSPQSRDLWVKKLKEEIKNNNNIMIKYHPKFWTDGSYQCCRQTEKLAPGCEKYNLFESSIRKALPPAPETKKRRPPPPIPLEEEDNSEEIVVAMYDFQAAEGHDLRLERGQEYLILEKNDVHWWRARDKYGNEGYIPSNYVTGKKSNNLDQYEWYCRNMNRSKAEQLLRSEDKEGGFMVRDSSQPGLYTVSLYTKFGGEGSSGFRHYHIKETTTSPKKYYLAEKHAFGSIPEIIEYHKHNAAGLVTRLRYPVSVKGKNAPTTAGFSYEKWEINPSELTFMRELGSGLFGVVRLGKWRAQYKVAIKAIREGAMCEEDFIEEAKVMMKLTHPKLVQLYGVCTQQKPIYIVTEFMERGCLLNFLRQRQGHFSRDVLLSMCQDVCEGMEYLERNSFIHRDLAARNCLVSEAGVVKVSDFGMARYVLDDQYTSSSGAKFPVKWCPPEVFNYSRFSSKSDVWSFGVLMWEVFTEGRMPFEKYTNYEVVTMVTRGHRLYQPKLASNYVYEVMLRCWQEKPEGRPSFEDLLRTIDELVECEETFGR

Sequence of Tyrosine-protein kinase JAK1 (P23458 whole entry): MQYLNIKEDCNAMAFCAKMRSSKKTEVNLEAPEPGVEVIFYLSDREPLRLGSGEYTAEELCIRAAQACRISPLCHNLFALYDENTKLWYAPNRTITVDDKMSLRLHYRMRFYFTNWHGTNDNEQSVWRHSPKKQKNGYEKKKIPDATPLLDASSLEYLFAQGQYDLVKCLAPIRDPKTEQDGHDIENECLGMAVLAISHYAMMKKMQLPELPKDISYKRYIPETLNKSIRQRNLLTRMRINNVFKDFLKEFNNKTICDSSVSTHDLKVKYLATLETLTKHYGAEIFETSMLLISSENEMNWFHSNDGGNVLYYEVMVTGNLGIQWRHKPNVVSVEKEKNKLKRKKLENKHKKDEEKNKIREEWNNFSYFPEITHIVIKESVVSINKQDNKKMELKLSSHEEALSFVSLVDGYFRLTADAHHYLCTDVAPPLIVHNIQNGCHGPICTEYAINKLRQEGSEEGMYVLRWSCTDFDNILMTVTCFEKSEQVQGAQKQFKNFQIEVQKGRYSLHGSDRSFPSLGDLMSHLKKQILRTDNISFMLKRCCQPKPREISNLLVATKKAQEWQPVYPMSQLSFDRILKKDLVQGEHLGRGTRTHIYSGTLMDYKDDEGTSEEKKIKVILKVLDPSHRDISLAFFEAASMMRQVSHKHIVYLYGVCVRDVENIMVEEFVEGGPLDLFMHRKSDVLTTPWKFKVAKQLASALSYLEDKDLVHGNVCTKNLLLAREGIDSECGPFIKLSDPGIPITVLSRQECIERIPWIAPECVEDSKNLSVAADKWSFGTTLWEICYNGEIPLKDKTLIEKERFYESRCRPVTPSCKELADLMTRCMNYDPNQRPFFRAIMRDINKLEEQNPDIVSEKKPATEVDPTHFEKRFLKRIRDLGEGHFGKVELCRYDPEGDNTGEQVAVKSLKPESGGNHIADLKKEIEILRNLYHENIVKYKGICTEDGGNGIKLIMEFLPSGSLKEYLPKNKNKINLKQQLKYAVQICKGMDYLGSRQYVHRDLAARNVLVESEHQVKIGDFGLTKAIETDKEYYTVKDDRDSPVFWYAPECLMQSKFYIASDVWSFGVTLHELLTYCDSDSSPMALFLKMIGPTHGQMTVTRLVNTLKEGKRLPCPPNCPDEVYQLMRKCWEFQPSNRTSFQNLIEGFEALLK

`COc1cc(N(C)c2ccnc3ccc(C(F)(F)F)cc23)cc(OC)c1OC` gave a % binding [1] of 70%.
`CN(C(=O)c1cnn2cccnc12)c1cc2c(cc1N1CCOCC1)C(=O)N(C[C@@H](F)C(C)(C)O)C2` showed a dTM [2] of -0.6 K.
For `Nc1cnc(N2CCc3cc(S(=O)(=O)Nc4c(F)cc(Cl)cc4F)cc(N4CCCC4=O)c32)nc1` [TP-020n], the % of control [3] was 93% and the % of control [4] was 74%.
In the case of `CCc1cc(Nc2nccc(-c3c(-c4ccc(OC)c(C(=O)Nc5c(F)cccc5F)c4)nc4ccccn34)n2)c(OC)cc1N1CCC(N2CCN(S(C)(=O)=O)CC2)CC1`, the % of inhibition [5] is reported as 50%.
Work on `Cc1cc([C@@H](C)Nc2ccccc2C(=O)O)c2nc(N3CCOCC3)cc(=O)n2c1` [AZD-6482] yielded a % of control [6] of 100% and a % of control [7] of 100%.
With `Cn1cc(-n2cnc3c(NCc4nc5cc(Cl)c(Cl)cc5[nH]4)nc(N4CCOCC4)nc32)cn1` the % of control [8] was 3.94%.
`O[C@H]1CC[C@H](Nc2ncc3nc(Nc4c(F)cc(F)cc4F)n([C@H]4CCOC4)c3n2)CC1` was tested, and the % of control [9] was 70%.
Compound `N#Cc1cccc(-c2c[nH]c3ncnc(N4CCOCC4)c23)c1` has a % of control [10] of 100%.
